YFM rating, pest or weed control and YFM data for 17 compounds are collected here from patent US20250228239A1, “MOLECULES HAVING PESTICIDAL UTILITY, AND INTERMEDIATES, COMPOSITIONS, AND PROCESSES, RELATED THERETO” (priority 2024, published 2025).

Molecules are shown by their SMILES. Where two headings read alike, the source gives them in different places.

What all share (assay type): in vivo
The test system of assay [1] is Yellow Fever Mosquito (Aedes aegypti, AEDSAE). To be noted: for YFM rating: Table ABC / ABC-DP rating. In outline:
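Compounds from 4000 ppm DMSO stocks were diluted in 90:10 water/acetone and dispensed into wells, then infested with about 1-day-old larvae in liver-powder water. Covered plates were held at room temperature for 3 days and each well was scored for mortality against a rating scale; six replicate plates per compound.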

In assay [2] the test system is Beet Armyworm (Spodoptera exigua, LAPHEG). As to the kind of experiment: Bioassays on Beet Armyworm (BAW), 128-well diet tray assay. To be noted: Spodoptera exigua. A digest of the protocol: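 Second-instar larvae, one to five per well, were placed on artificial diet surface-treated with 50 μg/cm^2 compound in 90:10 acetone-water, eight wells per treatment. Trays were held 5–7 days at 25 °C, 14:10 light-dark. Percent mortality per well was averaged over eight wells.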

The subject of assay [3] is Cabbage Looper (Trichoplusia ni, TRIPNI). As to the kind of experiment: Bioassays on Cabbage Looper (CL), 128-well diet tray assay. To be noted: Trichoplusia ni. A digest of the protocol: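 Activity is mean percent mortality over eight wells of second-instar larvae exposed to diet treated at 50 μg/cm^2 for 5–7 days at 25° C.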
The mark [4] stands for this setting: Beet Armyworm, Table ABC / ABC-DP rating, read-out: BAW rating.
The mark [5] stands for this setting: Cabbage Looper, Table ABC / ABC-DP rating, read-out: CL rating.
Where [6] appears, read: Table ABC: Biological Results, species YFM.
Setting [7] is: Table ABC: Biological Results, species BAW, read-out: BAW.
[8] abbreviates: Table ABC: Biological Results, species CL, read-out: CL.
Setting [9] is: Yellow Fever Mosquito, rating class.
Where [10] appears, read: Beet Armyworm, rating class, read-out: BAW.
Where [11] appears, read: Cabbage Looper, rating class, read-out: CL.

`CN(NC(=O)c1cc(NC(=O)[C@H]2[C@H](c3cc(Cl)cc(Cl)c3)C2(Cl)Cl)ccc1Cl)c1ccccc1` (relative stereo) [F2557, trans-2,2-Dichloro-N-(4-chloro-3-(2-methyl-2-phenylhydrazine-1-carbonyl)phenyl)-3-(3,5-dichlorophenyl)cyclopropane-1-carboxamide]: the YFM rating entry in assay [1] (Yellow Fever Mosquito) is listed as “A (80–100)”. Also, the pest or weed control at 50 µg/cm2 in assay [2] (setting [4]) and in assay [3] (setting [5]) was 50 to 100% in each case.
For the compound `O=C(NNc1ccc(Cl)cn1)c1cc(NC(=O)[C@H]2[C@H](c3cc(Cl)cc(Cl)c3)C2(Cl)Cl)ccc1Cl` (relative stereo) [F2504, trans-2,2-Dichloro-N-(4-chloro-3-(2-(5-chloropyridin-2-yl)hydrazine-1-carbonyl)phenyl)-3-(3,5-dichlorophenyl)cyclopropane-1-carboxamide], in assay [1] (Yellow Fever Mosquito), the YFM rating entry is “A (80–100)”. The pest or weed control at 50 µg/cm2 in assay [2] (setting [4]) and in assay [3] (setting [5]) was 50 to 100% throughout.
As to `CC(=O)Nc1ccc(NC(=O)c2cc(NC(=O)[C@H]3[C@H](c4ccc(F)c(Cl)c4)C3(Cl)Cl)cc(C)c2Cl)cc1` (relative stereo) [F1186, trans-N-(4-Acetamidophenyl)-2-chloro-5-(2,2-dichloro-3-(3-chloro-4-fluorophenyl)cyclopropane-1-carboxamido)-3-methylbenzamide], in assay [1] (setting [6]), the YFM entry was “A (80–100)”. In addition, the pest or weed control at 50 µg/cm2 in assay [2] (setting [7]) and in assay [3] (setting [8]) was 50 to 100% in each case.
For `CC(C)(C)OC(=O)Nc1c(F)ccc(NC(=O)c2cc(NC(=O)[C@@H]3[C@@H](c4ccc(F)c(C(F)(F)F)c4)C3(Cl)Cl)ccc2Cl)c1F` [F1074, tert-Butyl-(3-(2-chloro-5-((1S,3S)-2,2-dichloro-3-(4-fluoro-3-(trifluoromethyl)phenyl)cyclopropane-1-carboxamido)benzamido)-2,6-difluorophenyl)carbamate], in assay [1] (setting [6]), the YFM entry was “A (80–100)”. Besides, the pest or weed control at 50 µg/cm2 in assay [2] (setting [7]) and in assay [3] (setting [8]) was 50 to 100% in each case.
As to `O=C(Nc1ccc(F)cc1F)c1cc(NC(=O)C2C(c3cc(Cl)cc(S(F)(F)(F)(F)F)c3)C2(Cl)Cl)ccc1Cl` (stereo not drawn) [F1233, cis-2-Chloro-5-(2,2-dichloro-3-(3-chloro-5-(pentafluoro-λ^6-sulfanyl)phenyl)cyclopropane-1-carboxamido)-I-(2,4-difluorophenyl)benzamide], the YFM entry in assay [1] (setting [6]) was “A (80–100)”. Further, the pest or weed control at 50 µg/cm2 in assay [2] (setting [7]) and in assay [3] (setting [8]) was 50 to 100% each time.
Regarding `CC(F)(F)C(=O)Nc1c(F)ccc(NC(=O)c2cc(NC(=O)[C@H]3[C@H](c4ccc(F)c(C(F)(F)F)c4)C3(Cl)Cl)ccc2Cl)c1F` [F1352, 2-Chloro-5-((1R,3R)-2,2-dichloro-3-(4-fluoro-3-(trifluoromethyl)phenyl)cyclopropane-1-carboxamido)-N-(3-(2,2-difluoropropanamido)-2,4-difluorophenyl)benzamide], in assay [1] (setting [6]), the YFM result is reported as “A (80–100)”. For the same compound, the pest or weed control at 50 µg/cm2 in assay [2] (setting [7]) and in assay [3] (setting [8]) was 50 to 100% throughout.
`CC(CC(=O)Nc1c(F)ccc(NC(=O)c2cc(NC(=O)[C@H]3[C@H](c4ccc(F)c(C(F)(F)F)c4)C3(Cl)Cl)ccc2Cl)c1F)C(F)(F)F` (stereo partly drawn) [F1760, 2-Chloro-5-((1R,3R)-2,2-dichloro-3-(4-fluoro-3-(trifluoromethyl)phenyl)cyclopropane-1-carboxamido)-N-(2,4-difluoro-3-(4,4,4-trifluoro-3-methylbutanamido)phenyl)benzamide]: in assay [1] (setting [9]), the YFM entry is “A (80–100)”. Moreover, the pest or weed control at 50 µg/cm2 in assay [2] (setting [10]) and in assay [3] (setting [11]) was 50 to 100% throughout.
On to `C/C=C/C(=O)Nc1c(F)ccc(NC(=O)c2cc(NC(=O)[C@H]3[C@H](c4ccc(F)c(C(F)(F)F)c4)C3(Cl)Cl)ccc2Cl)c1F` [F1868, N-(3-((E)-But-2-enamido)-2,4-difluorophenyl)-2-chloro-5-((1R,3R)-2,2-dichloro-3-(4-fluoro-3-(trifluoromethyl)phenyl)cyclopropane-1-carboxamido)benzamide], for which, in assay [1] (Yellow Fever Mosquito), the YFM rating entry is on record as “A (80–100)”. For the same compound, the pest or weed control at 50 µg/cm2 in assay [2] (setting [4]) and in assay [3] (setting [5]) was 50 to 100% each time.
As to `O=C(Nc1ccc(F)c(NC(=O)C(F)(F)F)c1F)c1cc(NC(=O)[C@H]2[C@H](c3cc(C(F)(F)F)cc(C(F)(F)F)c3)C2(Cl)Cl)ccc1Cl` (relative stereo) [F1801, trans-5-(3-(3,5-bis(Trifluoromethyl)phenyl)-2,2-dichlorocyclopropane-1-carboxamido)-2-chloro-N-(2,4-difluoro-3-(2,2,2-trifluoroacetamido)phenyl)benzamide], the YFM rating entry in assay [1] (Yellow Fever Mosquito) was “A (80–100)”. Further, the pest or weed control at 50 µg/cm2 in assay [2] (setting [4]) and in assay [3] (setting [5]) was 50 to 100% throughout.
`Cc1cc([C@@H]2[C@H](C(=O)Nc3ccc(Cl)c(C(=O)Nc4ccc(F)cc4F)c3)C2(Cl)Cl)cc(C(F)(F)F)c1F` (relative stereo) [F1067, cis-2-Chloro-5-(2,2-dichloro-3-(4-fluoro-3-methyl-5-(trifluoromethyl)phenyl)cyclopropane-1-carboxamido)-N-(2,4-difluorophenyl)benzamide]: the YFM entry in assay [1] (setting [6]) is on record as “A (80–100)”. In addition, the pest or weed control at 50 µg/cm2 in assay [2] (setting [7]) and in assay [3] (setting [8]) was 50 to 100% throughout.
Take `O=C(NCC(F)(F)F)c1cc(NC(=O)[C@H]2[C@H](c3cc(F)c(Cl)c(Cl)c3)C2(Cl)Cl)ccc1Cl` (relative stereo) [F2006, trans-2-Chloro-5-(2,2-dichloro-3-(3,4-dichloro-5-fluorophenyl)cyclopropane-1-carboxamido)-N-(2,2,2-trifluoroethyl)benzamide]: the YFM rating result in assay [1] (Yellow Fever Mosquito) is “A (80–100)”. In addition, the pest or weed control at 50 µg/cm2 in assay [2] (setting [4]) and in assay [3] (setting [5]) was 50 to 100% each time.
For the compound `O=C(NCC(F)(F)F)c1cc(NC(=O)[C@H]2[C@H](c3ccc(F)c(Cl)c3)C2(Cl)Cl)cc(C(F)(F)F)c1Cl` (relative stereo) [F2054, trans-2-Chloro-5-(2,2-dichloro-3-(3-chloro-4-fluorophenyl)cyclopropane-1-carboxamido)-N-(2,2,2-trifluoroethyl)-3-(trifluoromethyl)benzamide], the YFM rating entry in assay [1] (Yellow Fever Mosquito) is reported as “A (80–100)”. The pest or weed control at 50 µg/cm2 in assay [2] (setting [4]) and in assay [3] (setting [5]) was 50 to 100% in each case.
As for `O=C(NCC(F)(F)F)c1cc(NC(=O)[C@H]2[C@H](c3cc(Br)cc(S(F)(F)(F)(F)F)c3)C2(Cl)Cl)ccc1Cl` (relative stereo) [F2008, trans-5-(3-(3-Bromo-5-(pentafluoro-λ^6-sulfanyl)phenyl)-2,2-dichlorocyclopropane-1-carboxamido)-2-chloro-N-(2,2,2-trifluoroethyl)benzamide], the YFM rating entry in assay [1] (Yellow Fever Mosquito) is reported as “A (80–100)”. Moreover, the pest or weed control at 50 µg/cm2 in assay [2] (setting [4]) and in assay [3] (setting [5]) was 50 to 100% each time.
Consider `CC(=O)Nc1cc(NC(=O)c2cc(NC(=O)[C@H]3[C@H](c4ccc(F)c(C(F)(F)F)c4)C3(Cl)Cl)ccc2Cl)c(F)c(F)c1F` [F1743, N-(5-Acetamido-2,3,4-trifluorophenyl)-2-chloro-5-((1R,3R)-2,2-dichloro-3-(4-fluoro-3-(trifluoromethyl)phenyl)cyclopropane-1-carboxamido)benzamide], for which the YFM result in assay [1] (setting [9]) is on record as “A (80–100)”. Moreover, the pest or weed control at 50 µg/cm2 in assay [2] (setting [10]) and in assay [3] (setting [11]) was 50 to 100% throughout.
For `C=CCC(=O)Nc1c(F)ccc(NC(=O)c2cc(NC(=O)[C@H]3[C@H](c4cccc(C(F)(F)F)c4)C3(Cl)Cl)ccc2Cl)c1F` [F1878, N-(3-(But-3-enamido)-2,4-difluorophenyl)-2-chloro-5-((1R,3R)-2,2-dichloro-3-(3-(trifluoromethyl)phenyl)cyclopropane-1-carboxamido)benzamide], in assay [1] (Yellow Fever Mosquito), the YFM rating entry is reported as “A (80–100)”. For the same compound, the pest or weed control at 50 µg/cm2 in assay [2] (setting [4]) and in assay [3] (setting [5]) was 50 to 100% each time.
Consider `Nc1c(F)ccc(NC(=O)c2cc(NC(=O)[C@H]3[C@H](c4cc(Cl)cc(C(F)(F)F)c4)C3(Cl)Cl)ccc2Cl)c1F` (relative stereo) [F1127, trans-N-(3-Amino-2,4-difluorophenyl)-2-chloro-5-(2,2-dichloro-3-(3-chloro-5-(trifluoromethyl)phenyl)cyclopropane-1-carboxamido)benzamide], for which, in assay [1] (setting [6]), the YFM entry is “A (80–100)”. Also, the pest or weed control at 50 µg/cm2 in assay [2] (setting [7]) and in assay [3] (setting [8]) was 50 to 100% in each case.
For the compound `CC(C)(C)OC(=O)Nc1ccc(F)c(NC(=O)c2cc(NC(=O)[C@H]3[C@H](c4cc(Cl)cc(Cl)c4)C3(Cl)Cl)ccc2Cl)c1F` (relative stereo) [F1023, trans-tert-Butyl-(3-(2-chloro-5-(2,2-dichloro-3-(3,5-dichlorophenyl)cyclopropane-1-carboxamido)benzamido)-2,4-difluorophenyl)carbamate], the YFM entry in assay [1] (setting [6]) is given as “A (80–100)”. Further, the pest or weed control at 50 µg/cm2 in assay [2] (setting [7]) and in assay [3] (setting [8]) was 50 to 100% in each case.
